Tests used:
Assay in all cases: relative viability (nuclei count vs DMSO), 5 days (fraction); higher = more cells survive
[1] = compound: O=S(=O)(c1ccccc1)N(CC(F)(F)F)c1ccc(C(O)(C(F)(F)F)C(F)(F)F)cc1 + Nc1ncn([C@H]2C[C@H](O)[C@@H](CO)O2)c(=O)n1 [Decitabine] (partner 2 µM)
How it was run: (§1)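 Lung cancer cell lines were pin-tool dosed in 1536-well plates on the day after seeding, with either a lone drug or a fixed anchor-drug dose plus five library-drug doses (not always all listed) in √10 steps. Nuclei were counted on 4× images after 5 days. Relative viability is the ratio of treated-well to vehicle-well nuclei counts, with each value a median of duplicate plates.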

RO-3306 + Olaparib = compound: C1=CC2=C(C=CC(=C2)C=C3C(=O)NC(=NCC4=CC=CS4)S3)N=C1 [RO-3306] + O=C(c1cc(Cc2n[nH]c(=O)c3ccccc23)ccc1F)N1CCN(C(=O)C2CC2)CC1 [Olaparib] (partner 8 µM)
How it was run: as §1

RO-3306 + Trametinib = compound: C1=CC2=C(C=CC(=C2)C=C3C(=O)NC(=NCC4=CC=CS4)S3)N=C1 [RO-3306] + CC(=O)Nc1cccc(-n2c(=O)n(C3CC3)c(=O)c3c(Nc4ccc(I)cc4F)n(C)c(=O)c(C)c32)c1 [Trametinib] (partner 0.02 µM)
How it was run: as §1

[2] = compound: O=S(=O)(c1ccccc1)N(CC(F)(F)F)c1ccc(C(O)(C(F)(F)F)C(F)(F)F)cc1 + CS(=O)(=O)CCNCc1ccc(-c2ccc3ncnc(Nc4ccc(OCc5cccc(F)c5)c(Cl)c4)c3c2)o1 [Lapatinib] (partner 2 µM)
How it was run: as §1

Cell Line	relative viability ([1]; first compound 0.8 µM)	relative viability ([1]; first compound 2.53 µM)	relative viability ([1]; first compound 8 µM)	relative viability (RO-3306 + Olaparib; first compound 0.01 µM)	relative viability (RO-3306 + Olaparib; first compound 0.03162 µM)	relative viability (RO-3306 + Olaparib; first compound 0.1 µM)	relative viability (RO-3306 + Olaparib; first compound 0.3162 µM)	relative viability (RO-3306 + Olaparib; first compound 1 µM)	relative viability (RO-3306 + Trametinib; first compound 0.01 µM)	relative viability (RO-3306 + Trametinib; first compound 0.03162 µM)	relative viability (RO-3306 + Trametinib; first compound 0.1 µM)	relative viability (RO-3306 + Trametinib; first compound 0.3162 µM)	relative viability (RO-3306 + Trametinib; first compound 1 µM)	relative viability ([2]; first compound 0.8 µM)	relative viability ([2]; first compound 2.53 µM)	relative viability ([2]; first compound 8 µM)
HCC-366	0.394	0.376	0.242	0.384	0.281	0.366	0.383	0.393	0.378	0.326	0.374	0.381	0.313	1.29	1.13	0.951
HCC-827	0.364	0.375	0.269	0.705	0.67	0.627	0.715	0.666	0.544	0.476	0.516	0.571	0.462	0.231	0.201	0.217
HOP-62	0.252	0.193	0.239	0.606	0.476	0.168	0.406	0.678	0.433	0.383	0.384	0.398	0.36	1.18	0.812	0.798
IA-LM	–	–	–	0.975	–	0.785	0.846	0.865	–	–	–	–	–	0.903	0.68	0.752
LC-2-ad	0.825	0.803	0.709	0.703	0.663	0.719	0.693	0.712	0.961	0.848	0.945	0.908	0.852	1.04	0.876	0.99
LCLC-97TM1	–	0.22	0.196	0.406	0.479	0.315	0.367	0.278	0.214	0.186	0.191	0.204	0.165	1.09	0.653	0.71
LCLC-103H	0.739	0.743	0.734	0.836	0.776	0.772	0.733	0.784	0.728	0.665	0.739	0.634	0.689	–	–	–
LK-2	0.333	0.347	0.325	0.735	0.566	0.841	0.577	0.734	1.01	0.659	0.692	0.872	0.872	1.13	0.82	0.913
LOU-NH91	0.846	0.823	0.894	0.953	0.834	0.916	0.913	0.813	0.829	0.735	0.75	0.76	0.742	0.859	0.832	0.854
LU99A	0.876	0.863	0.834	0.275	0.233	0.233	0.25	0.2	0.638	0.522	0.556	0.554	0.575	1.11	1.05	0.901
LXF-289	0.411	0.419	0.429	1.06	0.897	1.06	1.08	0.692	0.741	0.63	0.647	0.673	0.695	0.797	0.775	0.758
NCI-H441	0.238	0.212	0.21	0.641	0.461	0.592	0.581	0.443	0.451	0.341	0.368	0.439	0.428	–	–	–
NCI-H522	0.565	0.608	0.746	0.619	0.561	0.634	0.546	0.608	0.652	0.521	0.664	0.712	0.666	–	–	–
NCI-H1299	–	–	–	0.993	0.99	0.988	0.997	0.97	–	–	–	–	–	0.923	0.952	0.879
NCI-H1563	–	–	–	–	–	–	–	–	–	–	–	–	–	0.85	0.899	0.761
NCI-H1648	0.462	0.546	0.595	0.679	–	0.927	0.767	0.885	0.482	–	0.47	0.538	0.404	–	–	–
NCI-H1703	–	–	–	0.387	0.38	0.387	0.389	0.429	–	–	–	–	–	1.21	0.749	0.906
NCI-H2228	–	–	–	0.603	0.601	0.645	0.654	0.524	0.541	0.43	0.436	0.62	0.281	1.32	0.964	1.5
NCI-H2342	0.82	0.837	0.738	0.574	0.499	0.428	0.437	0.379	0.988	0.676	0.749	0.843	0.732	–	–	–
SW 900	0.417	0.427	0.429	0.96	0.809	0.72	0.789	0.807	0.885	0.742	0.752	0.663	0.804	–	–	–
